In PubChem BioAssay AID449762 (Southern Research Specialized Biocontainment Screening …, 2010):
Results filed as inconclusive are left out.

Test system: M. tuberculosis H37Rv growth inhibition, 7H9 media
Experiment: M. tuberculosis growth inhibition, HTS (AID 449762);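 note: bacterial growth assessed after seven days of incubation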
Conditions: for IC90: measured here: IC90 growth inhibition

| Compound | IC50 | IC90 |
| --- | --- | --- |
| CCOP(=O)(OCC)/C(=C/N1CCCCC1)NC(=O)c1ccccc1 | 81.4 µM | > 100 µM |
| COc1ccc(CCNc2cc(-c3ccccc3)nc3ncnn23)cc1 | 4.49 µM | > 100 µM |
| O=c1cc(N=Nc2ccc(Cl)cc2)[nH]c(=O)[nH]1 | 42 µM | > 100 µM |
| COc1ccccc1NC(=O)CN1CCN(CC(=O)Nc2ccc3c(c2)OCO3)CC1 | 14.8 µM | 33.6 µM |
| CN(Cc1ccc(Cl)s1)C(=O)CCl | 0.66 µM | 0.91 µM |
| Cn1c(CNc2nc(-c3ccccc3)cs2)nnc1SCC(=O)OC1CCCCC1 | 11.6 µM | 24.2 µM |
| COc1ccc(N(CC(=O)Nc2ccccc2C(N)=O)S(=O)(=O)c2ccc(C)c([N+](=O)[O-])c2)cc1 | 87.7 µM | > 100 µM |
| COc1ccccc1OCCN1CSC(=S)N(C)C1 | 6.34 µM | 15.3 µM |
| O=C(Nc1ncc(Cc2ccccc2Cl)s1)C1=NCCN1 | 0.43 µM | 92.9 µM |
| C=C(CCC(=O)c1ccccc1)C(=O)c1ccccc1 | 7.32 µM | 18.7 µM |
| COc1cc(/C=C2\C(=O)N(c3ccc(S(N)(=O)=O)cc3)N=C2C)ccc1OC(=O)c1ccco1 | 16.2 µM | 22.6 µM |
| CCC(C)NC(=O)c1c(N)n(/N=C/c2ccccn2)c2nc3ccccc3nc12 (stereo not given) | 9.73 µM | 14.3 µM |
| C=C1c2c(Cl)ccc(O)c2C(O)=C2C(=O)[C@]3(O)C(O)=C(C(N)=O)C(=O)[C@@H](N(C)C)[C@@H]3[C@@H](O)C12 (stereo not given in full) | 1.06 µM | 4.88 µM |
| C[C@]12C=CC(=O)C=C1CC[C@@H]1C2=CC[C@]2(C)[C@@H](C(=O)CN3CCN(c4cc(N5CCCC5)nc(N5CCCC5)n4)CC3)CC[C@@H]12 | 22.5 µM | 30.4 µM |
| CCc1c(C2(O)CCCCC2)[nH]c2ccc(C(F)(F)F)cc12 | 28.4 µM | > 50 µM |
| CCN(CC)C(=O)[C@H]1CC(CC(=O)NCC23CC4CC(CC(C4)C2)C3)C(=O)N2CCc3c([nH]c4ccccc34)[C@]12C (stereo not given in full) | 18.3 µM | 24.8 µM |
| CC1CCCCC1NC(=O)c1ccc2c(c1)[nH]c(=O)n2C1CCCC1 (stereo not given) | 5.15 µM | 8.42 µM |
| Cc1ccc(C(=O)Sc2cccccc2=O)cc1 | 0.96 µM | 2.48 µM |
| Cc1ccnc(NC(=O)CCc2c[nH]c3ccccc23)c1 | 25.8 µM | 54.4 µM |
| COC(=O)c1ccc(C(=O)OC)c(NC(=O)CSc2cccc[n+]2[O-])c1 | 2.97 µM | 3.37 µM |
| Cc1ccc2c(c1)Oc1ccc(NC(=O)CCl)cc1C(=O)N2 | 7.88 µM | > 100 µM |

| Compound | IC50 | IC90 |
| --- | --- | --- |
| CC(/C=C/c1ccccc1)=N\NC(N)=S | 3.84 µM | 9.07 µM |
| CCCSC1=C(C#N)C(c2ccc(Cl)cc2Cl)CC(=O)N1 (stereo not given) | – | > 25 µM |
| CCOC(=O)c1cc2cc3ccccc3cc2oc1=O | 34 µM | > 100 µM |
| CCOC(=O)C(C)Sc1ncnc2c1nnn2-c1ccc(F)cc1 (stereo not given) | 1.19 µM | 7.38 µM |
| Cc1nc(N2CCN(c3ccccn3)CC2)c2c(C)c(C(=O)N3CCN(c4ccc(F)cc4)CC3)sc2n1 | 11.1 µM | 12.5 µM |
| COc1cc2c(cc1OC)C(c1cc(Br)ccc1F)N(C(=O)CCl)CC2 (stereo not given) | 2.77 µM | 5.69 µM |
| Cc1ccccc1N/N=C/c1c(C)nc2ccccn12 | 47.1 µM | 53.7 µM |
| CCCC(NCC(O)COc1ccc(-c2ccccc2)cc1)c1ccccc1 (stereo not given) | 11.5 µM | 14.9 µM |
| COCCNC(=S)N/N=C(\C)c1ccc(OC)cc1 | 40.8 µM | 49.4 µM |
| CC1CCCC(C)N1/N=C/c1c[nH]c2ccc(Br)cc12 (stereo not given) | 23.3 µM | 26.3 µM |
| Clc1ccc(SCc2cc(N3CCOCC3)nc(-c3ccccn3)n2)cc1 | 0.92 µM | 6.27 µM |
| CC(=O)Oc1ccc(/C=N\NC(=O)c2cc3c(ccc4ccccc43)o2)cc1 | 58.5 µM | > 100 µM |
| Cc1ccc2[nH]c(C)c(CCNC(=O)c3cc4cc([N+](=O)[O-])ccc4oc3=O)c2c1 | 8.49 µM | 16.5 µM |
| COC(=O)c1ccc(-c2ncc(-c3cccc4ccccc34)o2)cc1 | 15.8 µM | 52.7 µM |
| Cc1nn(-c2ccccn2)c2c1-c1nc(N3CCOCC3)ncc1CC2 | 12.9 µM | > 100 µM |
| Cc1ccc2c(c1)nnn2C1CCN(CC(=O)N2CCN(c3ccc(F)cc3)CC2)CC1 | 35.3 µM | > 100 µM |
| CC(=O)c1ccc(NC(=O)c2cc(CC(C)C)on2)cc1 | 11.1 µM | 14.4 µM |
| CSc1nsc(SCC(=O)N2CCCCC2)n1 | 5.47 µM | 8.81 µM |
| Cc1ccc(F)cc1CNC(=O)c1cc(COc2ccc3ncccc3c2)on1 | 29.2 µM | > 100 µM |
| O=C(Nc1ccc(-n2cccc2)cc1)C1CC1 | 1.84 µM | > 100 µM |
| COc1ccc(C)c2sc(N(CCN(C)C)C(=O)/C=C/c3cccs3)nc12 | 25.2 µM | 35.9 µM |

| Compound | IC50 | IC90 |
| --- | --- | --- |
| Cc1nn(Cc2ccccc2)c(C)c1NC(=O)c1cc2nc(-c3ccco3)cc(C(F)(F)F)n2n1 | 46.5 µM | > 100 µM |
| COc1ccc(N/C=C/C(=O)c2sc(-c3ccccc3)nc2C)cc1 | 30.8 µM | 55.4 µM |
| COC(=O)c1ccc(NC(=S)NC(=O)C2CCC2)cc1 | 41.9 µM | 55.9 µM |
| Cc1ccc(C(=O)N/N=C(/CC(=O)c2cccs2)C(F)(F)F)cc1 | 2.97 µM | 3.28 µM |
| N/C(Cc1ccc([N+](=O)[O-])cc1)=N\OC(=O)c1ccc2ccccc2c1 | 22.5 µM | > 100 µM |
| Cc1ccc(-c2noc(-c3cc4ccccc4oc3=O)n2)cc1 | 6.7 µM | > 100 µM |
| c1ccc(-c2ccc(C(c3ccccc3)n3ccnc3)cc2)cc1 (stereo not given) | 19.7 µM | 31.7 µM |
| CCOc1ccc2nc(N/C(N)=N/C(=S)Nc3cccc(C)c3)nc(C)c2c1 | 5.4 µM | > 100 µM |
| Cc1cccc(OCC(=O)NNC(=O)c2cc3ccccc3oc2=O)c1 | 25.4 µM | > 100 µM |
| CC(C)(C)c1ccc(C(=O)NC(=S)NNC(=O)COc2ccccc2)cc1 | 3.39 µM | 8.56 µM |
| Cc1cc2cc(CNC(=O)NC3CCCCC3)ccc2[nH]1 | 23.3 µM | 50.9 µM |
| COC(=O)CSc1[nH]c2ccc(Br)cc2c1[N+](=O)[O-] | 5.64 µM | 9.31 µM |
| Nc1nc2ccccc2n1CCOc1ccccc1Cl | 12.1 µM | 13.3 µM |
| CN1CCc2cc3c(c4c2C1Cc1ccccc1-4)OCO3 (stereo not given) | 1.66 µM | 1.94 µM |
| CCCCN(CCCC)CCC(O)c1cc2c(Cl)cc(Cl)cc2c2cc(C(F)(F)F)ccc12 (stereo not given) | 16.6 µM | 25.7 µM |
| Cc1cc(N/N=C/c2ccccc2[N+](=O)[O-])nc(-n2nc(C)cc2C)n1 | 0.92 µM | 4.72 µM |
| O=C(NC1CCCCCC1)c1ccccc1-c1ccccc1 | 18.4 µM | > 100 µM |
| CC/C(C)=N/NC(=S)NCc1ccco1 | 47.5 µM | 53.8 µM |
| CCCCC(=O)OCC(=O)N1N=C(c2c[nH]c3ccccc23)C(O)C1c1ccc(OC)cc1 (stereo not given) | 10.6 µM | 15.9 µM |
| O=C1N[C@@H](Cc2ccccc2)C(=O)N2[C@H]3Nc4ccccc4[C@@]3([C@]34C[C@H]5C(=O)N[C@@H](Cc6ccccc6)C(=O)N5[C@H]3Nc3ccccc34)C[C@@H]12 | 79.1 µM | > 100 µM |
| COC(=O)C(C)Oc1cc(C)ccc1COc1ccc(-n2nc(C)n(C(F)F)c2=O)cc1 (stereo not given) | 16.6 µM | 32.9 µM |
